Assay results as given in patent US7989450B2, “Functionalized diarylisoxazoles inhibitors of ciclooxygenase” (Universita' Degli Studi Di Bari, priority 2008, dated 2011).

Assays:
[1] = biological target: T1, platelet COX-1 (Homo sapiens, UniProt P23219); test: Biosynthesis of TXB2 in human whole blood left to coagulate, index of platelet COX-1 activity; type: cell-based; conditions: human whole blood method, coagulation 1 hour at 37° C., TXB2 by RIA
T1 construct: 1 ml aliquots of whole blood were immediately transferred into glass test tubes and left to coagulate at 37° C; endogenous in cells; host or cells: platelets in whole blood of healthy human volunteers
T1 sequence (P23219 24-599): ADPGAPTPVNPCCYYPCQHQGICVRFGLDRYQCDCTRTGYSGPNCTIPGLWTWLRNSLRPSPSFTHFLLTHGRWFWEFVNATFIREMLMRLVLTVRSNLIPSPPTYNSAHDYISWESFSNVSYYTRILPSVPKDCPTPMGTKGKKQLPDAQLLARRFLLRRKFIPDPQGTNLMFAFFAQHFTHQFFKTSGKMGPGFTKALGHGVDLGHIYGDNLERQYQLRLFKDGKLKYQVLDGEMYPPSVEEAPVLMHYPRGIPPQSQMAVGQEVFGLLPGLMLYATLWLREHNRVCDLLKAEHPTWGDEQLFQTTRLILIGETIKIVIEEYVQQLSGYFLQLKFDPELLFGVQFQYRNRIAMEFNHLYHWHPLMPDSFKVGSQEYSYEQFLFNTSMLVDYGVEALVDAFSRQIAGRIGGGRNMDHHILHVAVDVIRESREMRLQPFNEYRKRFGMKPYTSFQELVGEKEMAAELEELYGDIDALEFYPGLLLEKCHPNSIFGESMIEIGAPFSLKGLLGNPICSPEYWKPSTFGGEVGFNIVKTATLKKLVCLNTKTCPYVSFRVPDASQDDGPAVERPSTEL
Method: (§1) Fourteen healthy volunteers (25-34 years) were enrolled to take part in the study and were studied on various occasions. Peripheral venous blood samples were taken from donors who had not taken FANS in the 2 weeks prior to the study.
1 ml aliquots of whole blood were immediately transferred into glass test tubes and left to coagulate at 37° C. for 60 minutes.

[2] = biological target: T2, monocyte COX-2 induced by LPS (Homo sapiens, UniProt P35354); test: Biosynthesis of PGE2 in LPS-stimulated human whole blood, index of monocyte COX-2 activity; type: cell-based; conditions: human whole blood method, 24 hours at 37° C.; for IC50: LPS 10 microg/ml, PGE2 by RIA
T2 construct: incubated with heparinised whole blood in the presence of LPS (10 microg/ml) for 24 hours at 37° C; endogenous in cells; host or cells: LPS-stimulated monocytes in heparinised whole blood of healthy human volunteers
T2 sequence (P35354 18-604): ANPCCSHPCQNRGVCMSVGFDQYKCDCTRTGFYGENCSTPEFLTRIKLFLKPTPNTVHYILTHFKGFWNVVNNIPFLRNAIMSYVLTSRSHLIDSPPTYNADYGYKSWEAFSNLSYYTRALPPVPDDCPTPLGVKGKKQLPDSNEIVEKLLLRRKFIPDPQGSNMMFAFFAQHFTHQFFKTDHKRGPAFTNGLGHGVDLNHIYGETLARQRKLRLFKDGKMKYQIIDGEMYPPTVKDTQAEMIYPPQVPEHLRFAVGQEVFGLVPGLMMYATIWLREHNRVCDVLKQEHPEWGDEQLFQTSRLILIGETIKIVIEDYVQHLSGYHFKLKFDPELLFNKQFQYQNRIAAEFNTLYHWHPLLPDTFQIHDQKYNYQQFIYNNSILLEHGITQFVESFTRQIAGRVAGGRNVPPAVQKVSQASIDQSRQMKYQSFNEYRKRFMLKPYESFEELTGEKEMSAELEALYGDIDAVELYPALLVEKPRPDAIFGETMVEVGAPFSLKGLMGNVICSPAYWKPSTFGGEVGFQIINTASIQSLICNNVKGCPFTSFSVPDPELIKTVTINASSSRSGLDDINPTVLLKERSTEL
Method: as §1
Biosynthesis of PGE2 in the Whole Blood as an Index of Monocyte COX-2 Activity Induced by LPS.
Aliquots of 1 ml of whole blood taken from the cubital vein with a syringe containing heparin (20 IU/ml blood) were incubated with lipopolysaccharide (LPS, from Escherichia coli 026:B6; Sigma Chemical Company, St. Louis, Mo.) (10 μg/ml) for 24 hours at 37° C. The plasma was separated by centrifugation and kept at −70° C. The PGE2 was measured with a specific radioimmunological assay (RIA) as an index of monocyte COX-2 activity induced by LPS.

[3] = secondary prevention, various groups of patients; cited from earlier work

Row | SMILES | melting point | IC50 [1] [nM] | further results
1 | CC1(O)ON=C(c2ccc(Cl)o2)C1c1ccc(F)cc1 (stereo not drawn) [Example 2, 3-(5-Chlorofuran-2-yl)-4-(4-fluorophenyl)-5-hydroxy-5-methyl-2-isoxazoline] | 101 to 102 °C | – | –
2 | FC(F)(F)c1onc(-c2ccc(Cl)o2)c1-c1ccccc1 [Example 5, 3-(5-Chlorofuran-2-yl)-4-phenyl-5-(trifluoromethyl)isoxazole] | 55 to 57 °C | 810 | IC50 [2]: > 100 µM
3 | Cc1onc(-c2ccc(Cl)o2)c1-c1ccc(F)cc1 [Example 6, 3-(5-Chlorofuran-2-yl)-4-(4-fluorophenyl)-5-methylisoxazole] | 103.7 to 105.2 °C | 1900 | IC50 [2]: > 100 µM
4 | Cc1onc(-c2ccc(Cl)o2)c1-c1ccccc1F [Example 7, 3-(5-Chlorofuran-2-yl)-4-(2-fluorophenyl)-5-methylisoxazole] | – | 1900 | IC50 [2]: > 100 µM
5 | Cc1onc(-c2ccco2)c1-c1ccccc1 [Example 12, 3-(Furan-2-yl)-4-phenyl-5-methylisoxazole] | 93 to 96 °C | – | –
6 | Cc1onc(-c2ccc(Br)o2)c1-c1ccccc1 [Example 14, 3-(5-Bromofuran-2-yl)-4-phenyl-5-methylisoxazole] | 93 to 96 °C | – | –
7 | O=C(O)c1onc(-c2ccc(Cl)o2)c1-c1ccccc1 [Example 15, [3-(5chlorofuran-2-yl)-4-phenylisoxazol-5-yl]carboxylic acid] | 168 to 170 °C | – | –
8 | COC(=O)c1onc(-c2ccc(Cl)o2)c1-c1ccccc1 [Example 16, Methyl [3-(5-chlorofuran-2-yl)-4-phenylisoxazol-5-yl]carboxylate] | 130 to 131 °C | – | –
9 | OCc1onc(-c2ccc(Cl)o2)c1-c1ccccc1 [Example 17, 3-(5-Chlorofuran-2-yl)-4-phenyl-5-hydroxymethylisoxazole] | 102 to 103 °C | 4200 | inhibition at 100 µM ([2]; 100 μM, LPS, read-out: COX-2 inhibition (I) at 100 μM): 44%
10 | CC(=O)OCc1onc(-c2ccc(Cl)o2)c1-c1ccccc1 [Example 18, 5-Acetoxymethyl-3-(5-chlorofuran-2-yl)-4-phenylisoxazole] | – | 5200 | IC50 [2]: > 100 µM
11 | O=C(OCCCN1CCOCC1)c1onc(-c2ccc(Cl)o2)c1-c1ccccc1 [Example 19, 3-(Morpholin-1-yl)propyl[3-(5-chlorofuran-2-yl)-4-phenylisoxazol-5-yl]carboxilate] | 82 to 83.7 °C | – | –
12 | O=C(OCCCBr)c1onc(-c2ccc(Cl)o2)c1-c1ccccc1 [Example 20, 3-Bromopropyl[3-(5-chlorofuran-2-yl)-4-phenylisoxazol-5-yl]carboxylate] | 100 to 101 °C | – | –
13 | O=C(OCCCO[N+](=O)[O-])c1onc(-c2ccc(Cl)o2)c1-c1ccccc1 [Example 21, 3-(Nitroxy)propyl[3-(5-chlorofuran-2-yl)-4-phenylisoxazol-5-yl]carboxylate] | 79 to 79.8 °C | – | –
14 | COC(=O)c1c(-c2ccc(Cl)o2)noc1-c1ccccc1 [Example 22, Methyl3[-(5-chlorofuran-2-yl)-5-phenylisoxazol-4-yl]carboxylate] | 113 to 117 °C (dec.) | – | –
15 | CC(=O)Oc1ccccc1C(=O)O [aspirin, acetylsalicylic acid] | – | – | prevention of non fatal vascular events [3]: 25-30%; prevention of vascular death [3]: 15-20%
